In one experiment the test system is JAR cells. The experiment can be described thus: RT-qPCR of mature let-7 in JAR cells. To be noted: 24 h treatment. It is filed as cell-based, human. Here is the method:
differential scanning fluorimetry (nanoDSF) instrument at temperatures between 20 °C and 90 °C and a temperature slope of 1 °C per minute with an excitation power of 50–60 %. A total protein concentration of 30 µM and compound concentrations from 100 µM to 0.78 µM corresponding to […] to 0.039 % DMSO, respectively, were used. Compound and protein were incubated for 45 minutes at room temperature in buffer containing 30 mM NaH2PO4, 50 mM NaCl, 1 mM MgCl2, and 50 µM ZnCl2 at pH 8 and 10 µL sample was loaded to each nanoDSF standard capillary (NanoTemper). The ratio of intrinsic tryptophan fluorescence at 350 nm and 330 nm was measured and the first derivative was determined to detect the inflection points using the software of the device.
RT-qPCR. JAR cells (obtained from DSMZ, German Collection of Microorganisms and Cell Cultures, Braunschweig, Germany, DSMZ no. ACC462)1 were cultured in 24-well plates and treated with the compound (PH-31) for 24 h with a total DMSO concentration of 0.5 % in all wells. RNA was extracted using RNeasy Mini Kit (Qiagen) and 20 ng of total RNA was used for reverse transcription using the TaqMan microRNA Reverse Transcription Kit (Applied Biosystems) following the manufacturer's protocols. […]
For orientation: Quantitative PCR measures a nucleic acid by following its amplification.

Experiment [1] concerns the target T1, cold shock domain of LIN28A (residues 16–126) (Homo sapiens, UniProt Q9H9Z2).
T1 construct: cold shock domain construct LIN28 A (residues 16– 126)
T1 sequence (Q9H9Z2 16-126): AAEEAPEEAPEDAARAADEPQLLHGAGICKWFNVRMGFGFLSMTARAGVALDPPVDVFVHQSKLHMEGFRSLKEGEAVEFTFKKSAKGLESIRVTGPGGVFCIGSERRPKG
Nature of the experiment: Thermal shift assay (nano-differential scanning fluorimetry). It is filed as binding. To be noted: 30 µM protein, compound 100 µM to 0.78 µM. On the procedure:
was detected after incubation at room temperature using a TECAN Spark plate reader. Half maximal […]
inhibitory concentrations (IC50) were determined using GraphPad Prism 7.
Compound screening. High throughput screening was performed in low volume 384 well plates […]
(Corning 4514) with 30 µM compound, 40 nM LIN28A, and 2 nM preE-let-7f-1-FAM in FP assay […]
buffer. Compounds were transferred with an ECHO 520 liquid handler and protein and RNA were […]
added with a multidrop dispenser. Protein and RNA were added stepwise with a 30 min incubation […]
period in between. FP was detected after a final incubation of 15 min with an Envision plate reader […]
and fluorescence was measured with a Paradigm plate reader. A reaction without LIN28 served as a […]
negative control and one without compound was used as a positive control. The software Quattro […]
fluorescence was detected with a ChemiDoc M P (Bio-Rad) and 2 minutes of exposure time. […]
126) with and without compound was monitored using a NanoTemper Prometheus NT.48 nano - […]
differential scanning fluorimetry (nanoDSF) instrument at temperatures between 20 °C and 90 °C and a temperature slope of 1 °C per minute with an excitation power of 50–60 %. […] The ratio of intrinsic tryptophan fluorescence at 350 nm and 330 nm was measured and the first derivative was determined to detect the inflection points using the software of the device. […]
A general note: DSF heats the sample and reads unfolding from a dye or from intrinsic fluorescence.

With `O=C(C1=C(O)C(=O)N(c2ccc(O)c(C(=O)O)c2)C1c1ccc(-c2nccs2)cc1)c1ccc(Br)cc1` (stereo not drawn) [C902/PH-31], in the experiment with JAR cells, the “level of mature let-7a” value is “increased levels” and the “level of mature let-7g” value was “increased levels”. Moreover, the “thermal stability of the CSD of LIN28A” value in experiment [1] is given as “concentration-dependent enhancement”.
